Data published in EP1224486B1, “USE OF DOUBLE-QUANTUM 1H-NMR SPECTROSCOPY FOR THE IDENTIFICATION OF LIGANDS INTERACTING WITH TARGET BIOMOLECULES” (Pharmacia Italia S.p.A., priority 1999, dated 2001).
Non-standard residues stand in square brackets, D forms with d. Residues, ends and D or L forms follow the SMILES beside them. pY = N[C@@H](Cc1ccc(OP(=O)(O)O)cc1)C(=O)O

Columns and labels:
Grb2-SH2 domain [1] = molecular target: T1, Grb2-SH2 domain (Homo sapiens, UniProt P62993); assay: 2D 1H double-quantum (DQ) NMR screening of compound mixtures with and without the protein; type: binding; conditions: 25°C, pH 6.2; for identification as ligand by comparison of 2D DQ spectra and 2D DQ difference spectrum: mixture 2, 300 µM each compound, 50 µM protein (6:1)
T1 construct: The SH2 domain of Grb2 was expressed in E. coli as GST fusion proteins; GST (cleaved yes); made in house; host or cells: E. coli
Procedure: The feasibility of the invention in identifying ligands was tested with mixtures of compounds against the Grb2-SH2 domain. […] Figure 2 illustrates the DQ fingerprint region of a compound mixture (mixture 1) recorded with the pulse sequence of Figure 1a in the absence (a) and in the presence (b) of the protein. […] The NH protein resonances are not visible in Figure 2 (b) due to their short T (SQ)/(2) [formula] and T^DQ and the lower protein concentration (50 µM). The protein aromatic resonances have a longer T (SQ)/(2) [formula] and T^DQ compared to the amide resonances and their presence in the DQ spectrum may interfere with the observation of the ligand signals. Figure 3(a) illustrates the aromatic region of the 2D relaxation weighted DQ spectrum for mixture 1. Figures 3 (b) and (c) depict the same spectral region of the 2D DQ and relaxation weighted DQ spectrum of mixture 1 in the presence of the Grb2 SH2 domain, respectively. […] The large linewidth of all the protein resonances and the antiphase character of the DQ multiplets along ω2 results in complete cancellation of the positive and negative lobes. […] Only the compound resonances that display changes in intensity or chemical shift in the presence of the protein will be visible in the difference spectrum.
All the spectra were acquired at 25°C with the pulse sequences of Figure 1 using a Varian Inova 600 MHz spectrometer equipped with a 5 mm triple-resonance inverse probe and actively shielded x, y, and z- gradient coils. The DQ spectra were collected using 8 to 32 transients for each of the 256 t1 increments (128 t1 values for both the echo and antiecho pathway selections) and with 2048 points in t2. The data were multiplied with a cosine window function in both dimensions prior to the Fourier transformation.
The excitation DQ period τ was 42 ms long and the angle β of the detection pulse was set to 45° and 135° for the antiecho and echo coherence pathway selection, respectively. The coherence selection gradients G1 to G3 were set at the magic angle using only the x and z components of the gradients. The first two PFGs applied at the beginning and end of the excitation double-quantum period were weak gradients for radiation damping suppression. The 2D spectral differencing was performed with the software provided by Varian. The scaling factor used in the examples reported here was -1. However it can be adjusted manually for allowing small variations in concentration of the protein-ligand mixture and ligand mixture solutions.

Grb2-SH2 domain [2] = assay: 2D 1H double-quantum NMR screening of compound mixtures for ligand binding; conditions: mixture 2, each compound 300 µM, protein 50 µM (6:1), 25°C, pH 6.2
Text: From a practical point of view, the steps involved in the detection of binding are preferably the following: • a) mixing together from 1 to n chemical compounds not interacting with each other; • b) recording a two-dimensional ^1H DQ or DQC (refocussed or not) relaxation weighted DQ spectrum (preferentially version with PFG) for the said compound mixture in the absence of the target biomolecule; • c) mixing the said compound mixture with the target biomolecule where each of the molecules comprising the mixture is preferably present at a molar ratio to the target biomolecule of about 1:1 to about 20:1 • d) recording a two-dimensional ^1H DQ or DQC (refocussed or not) relaxation weighted DQ spectrum (preferentially version with PFG) for the said compound mixture in the presence of the target biomolecule; • e) comparing the spectra recorded in steps b) and d) to detect which, if any of the chemical entities of the mixture, has interacted with the target biomolecule; and, optionally • f) recording a two-dimensional ^1H DQ or DQC (refocussed or not) relaxation weighted DQ spectrum (preferentially version with PFG) for each of the compounds which have been detected in step (e) above, with and without the target protein.
The feasibility of the invention in identifying ligands was tested with mixtures of compounds against the Grb2-SH2 domain. […]

T1 sequence (P62993 60-152 limits assumed): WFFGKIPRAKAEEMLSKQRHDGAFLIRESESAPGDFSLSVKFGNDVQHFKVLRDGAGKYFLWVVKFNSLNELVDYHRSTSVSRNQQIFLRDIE

Compound	identification as ligand by comparison of 2D DQ spectra and 2D DQ difference spectrum (Grb2-SH2 domain [1])	also measured
Ac-Tyr-Val-Asn-Val-OH (Ac-YVNV-OH)	do not interact with the protein	–
CC(=O)N[C@@H](Cc1ccc(OP(=O)(O)O)cc1)C(=O)N[C@H](C(N)=O)C(C)C [Ac-Tyr(PO3H2)-Val-NH2] (Ac-[pY]-Val-NH2)	potential very weak ligand	identification as ligand by comparison of 2D DQ spectra and 2D DQ difference spectrum (Grb2-SH2 domain [1]; listed as compound B): possible weak interaction
Ac-Tyr(PO3H2)-Val-NH-CH2-CH2-CONH2	potent ligand	–
Ac-(N-Me)Phe(p-CH2PO3H2)-Val-Asn-NH-CH2-CH(CH3)2	–	identification as ligand by comparison of 2D DQ spectra (Grb2-SH2 domain [1]; mixture 1, 100 µM each compound, 50 µM protein (2:1)): ligand for Grb2-SH2
c1ccc2[nH]ccc2c1 [Indole, indole]	–	identification as ligand (2D DQ spectra and 2D DQ difference spectrum with/without protein) (Grb2-SH2 domain [2]): do not interact with the protein
